Entries after “also recorded” stand apart in the source; their conditions may differ.
Legend:
Format in all cases: cell-based
[1] = tested on: TG-2; test: TG-2 colorimetric microassay (transamidase activity) in lysate of treated mouse scleral fibroblasts; conditions: for transamidase activity of endogenous cellular TG-2: mouse scleral fibroblasts, 0.1, 1, 10 and 100 μM for 5 days, concentration-dependent
Description: (§1) All cells used in examples described herein were between passages 2-4. Passaged cells were plated at a concentration of 2×10^5/mL into 6 well plates containing DMEM with 10% FBS. […] Old media was removed from wells and 1 mL of drug was added with fresh full medium and incubated at 37° C. Fresh drugs were replaced daily consecutively for the next 5 days to avoid oxidation. The drugs/media was removed and wells were washed twice with 1×PBS. 200 μl of RIPA lysis buffer was added per well and incubated for 5 minutes and cells were scrapped into an eppendorf tube. The cells were stored at −20° C. until sonication. The cells were sonicated on ice thrice at 20% output power for 5 seconds each time and rested 1 minute in between each turn. Cell debris was spun down at 12000 rpm for 20 minutes. The supernatant was poured into a new eppendorf tube and cell concentrations were determined using the Dc Protein assay Kit (Bio-Rad, MA). Passaged cells were plated at a concentration of 1×10^5 into 6 well plates containing DMEM with 10% FBS. […] Freshly prepared muscarinic agents' at base line, 0.1, 1, 10 and 100 μM concentrations were added for 5 days (Table 2). The culture medium was removed and fresh medium containing the same muscarinic drug added every day to avoid drug changes such as atropine oxidation. Cell lysate was collected for relative quantitative (q) PCR and protein analysis at day 5.
(§2) This assay was designed to assess the cross-linking activity of TG-2 between two proteins. TG activity was measured with TG-2 colorimetric Microassay kit (TG-Covtest, Covalab, Cambridge, UK). 150-200 μg of total protein was used per well for the TG-2 assay. Transglutaminase standards (Sigma) were used as a positive control. EDTA was used to inhibit the enzyme activity as a negative control.
(§3) The approximate volume of reagents to use, the wavelengths to use to read absorbance, the incubation times were determined from a previous study that have carried out experiments with similar principles as described in Perez Alea M, Kitamura M, Martin G, Thomas V, Hitomi K, El Alaoui S., “Development of an isoenzyme-specific colorimetric assay for tissue transglutaminase 2 cross-linking activity”, Anal Biochem. 2009 Jun. 15; 389(2):150-6, Epub 2009 March 24. All reagents used and protein coated plates were part of the kit. Biotin cadaverine was reconstituted with 6 ml of deionized water and 90 μl was added into each well of the 96 well plate that comes coated with CBZ-GLN-GLY. The rest of the steps were followed as in the manufacturer's instructions and finally absorbance was read at 450 nm using a microplate reader (TECAN, Austria). All incubations were performed with gentle shaking on a laboratory orbital shaker.
(§4) The TG-2 colorimetric assay serves as a high throughput and quantitative assay to assess transamidase activity. […] In vivo studies with these drugs were also conducted to determine the effect on myopia development (see FIGS. 14 and 15).

[2] = tested on: TG-2; test: Western blot of TG proteins in mouse scleral fibroblasts after muscarinic agents
Description: (§5) All cells used in examples described herein were between passages 2-4. Passaged cells were plated at a concentration of 2×10^5/mL into 6 well plates containing DMEM with 10% FBS. The cells were seen to attach to the bottom of the culture wells after 4 hours. Old media was removed from wells and 1 mL of drug was added with fresh full medium and incubated at 37° C. Fresh drugs were replaced daily consecutively for the next 5 days to avoid oxidation. The drugs/media was removed and wells were washed twice with 1×PBS. 200 μl of RIPA lysis buffer was added per well and incubated for 5 minutes and cells were scrapped into an eppendorf tube. The cells were stored at −20° C. until sonication. The cells were sonicated on ice thrice at 20% output power for 5 seconds each time and rested 1 minute in between each turn. Cell debris was spun down at 12000 rpm for 20 minutes. The supernatant was poured into a new eppendorf tube and cell concentrations were determined using the Dc Protein assay Kit (Bio-Rad, MA). Passaged cells were plated at a concentration of 1×10^5 into 6 well plates containing DMEM with 10% FBS. The cells were seen to attach to the bottom of the culture wells after 4 hours. Freshly prepared muscarinic agents' at base line, 0.1, 1, 10 and 100 μM concentrations were added for 5 days (Table 2). The culture medium was removed and fresh medium containing the same muscarinic drug added every day to avoid drug changes such as atropine oxidation. Cell lysate was collected for relative quantitative (q) PCR and protein analysis at day 5.
(§6) The cells were lysed by sonification in 1×RIPA lysis buffer (santa cruz biotechnology, Sc-24948) with 10 μl PMSF solution, 10 μl sodium orthovanadate solution and 20 μl protease inhibitor cocktail solution. After centrifugation at 20,000×g at 4° C. for 20 minutes, and the supernatant collected. The protein content in the supernatants was measured using the DC Protein Assay kit (Bio-Rad, MA) following the manufacturer's instructions. Samples were stored at −80° C. until assayed.
(§7) The mouse and human scleral fibroblasts were treated with atropine or carbachol at 0.01, 0.1, 1, 5 and 10 μM concentrations for 5 days. Following 5 days of treatment, the total cellular protein was extracted from these cells and TG proteins detected via Western blot analysis.
Human and, mouse scleral fibroblast proteins in the supernatant were separated by SDS-PAGE, transferred to nitrocellulose membranes, blocked in 5% BSA in TBST (10 mM Tris-HCl [pH 8.0], 150 mM NaCl, and […] Tween-20) for 2 hours at room temperature, and incubated with the same anti-TG-2 antibody described herein at a dilution of 1:1000 and anti β-tubulin antibodies used as a positive control, for 1 hour at room temperature. The membranes were washed 3 times in TBST and incubated with HRP-conjugated secondary antibody (Chemicon International) at a dilution of 1:2500 for 1 hour at room temperature. Immunoreactive bands were visualized using the enhanced chemiluminescence method (GE Healthcare, Buckinghamshire, UK). The membrane was wrapped in plastic and placed against an X-ray film to expose for an appropriate length of time (30 seconds-5 minutes).

[3] = tested on: TG-2; test: Western blot of TG proteins in human scleral fibroblasts after muscarinic agents
Description: as §5, §6, §7
Human and, mouse scleral fibroblast proteins in the supernatant were separated by SDS-PAGE, transferred to nitrocellulose membranes, blocked in 5% BSA in TBST (10 mM Tris-HCl [pH 8.0], 150 mM NaCl, and […] Tween-20) for 2 hours at room temperature, and incubated with the same anti-TG-2 antibody described herein at a dilution of 1:1000 and anti β-tubulin antibodies used as a positive control, for 1 hour at room temperature. […]

[4] = tested on: TG-2; test: TG-2 colorimetric microassay (transamidase activity) in lysate of treated human scleral fibroblasts; conditions: for transamidase activity of endogenous cellular TG-2: human scleral fibroblasts, 0.1, 1, 10 and 100 μM for 5 days, concentration-dependent
Description: as §1, §2, §3, §4

[5] = specific muscarinic antagonists
[6] = 0.01-10 μM for 5 days, Western blot

Compound | TG-2 activity, strongest reduction among the antagonists ([1]; mouse scleral fibroblasts) | transamidase activity of endogenous cellular TG-2 [1] | TG2 activity as compared to atropine ([1]; mouse scleral fibroblasts, high concentration (100 μM)) | TG-2 protein level [2, 5] | TG-2 protein level [3, 5] | transamidase activity of endogenous cellular TG-2 [4] | TG-2 activity, strongest reduction among the antagonists ([4]; human scleral fibroblasts, all concentrations) | TG-2 activity as compared to atropine ([4]; human scleral fibroblasts, himbacine 0.1, 1, 10 & 100 μM, darifenacin 0.1, 1 & 10 μM) | TG-2 activity, strongest reduction ([1]; mouse scleral fibroblasts, 0.1 μM, saturated at 1, 10 and 100 μM) | TG-2 protein level [2, 6] | TG-2 protein level [3, 6]
C[C@@H]1OC(=O)[C@H]2C[C@H]3CCCC[C@@H]3[C@@H](/C=C/[C@H]3CCC[C@H](C)N3C)[C@@H]12 [himbacine] | most significantly reduced | reduced | most significantly reduced | significantly reduced | significantly reduced | reduced | most significantly reduced | more significantly reduced | – | – | –
CN1[C@@H]2CC[C@H]1C[C@@H](OC(=O)C(CO)c1ccccc1)C2 (stereo partly shown) [atropine] | – | reduced | – | – | – | reduced | – | – | most significantly reduced | reduced; also recorded: reduction | reduced
